By DC50 is commonly meant the concentration at which degradation of the target reaches its halfway point.

Some results are limits rather than exact numbers.

The source of these data is patent publication US20260355196A1, “INHIBITORS AND DEGRADERS OF PIP4K PROTEIN” (Larkspur Biosciences, Inc., priority 2023, published 2026).

This assay deals with T1, PIP4K2C (Homo sapiens, UniProt Q8TBX8).
T1 sequence (Q8TBX8 1-421): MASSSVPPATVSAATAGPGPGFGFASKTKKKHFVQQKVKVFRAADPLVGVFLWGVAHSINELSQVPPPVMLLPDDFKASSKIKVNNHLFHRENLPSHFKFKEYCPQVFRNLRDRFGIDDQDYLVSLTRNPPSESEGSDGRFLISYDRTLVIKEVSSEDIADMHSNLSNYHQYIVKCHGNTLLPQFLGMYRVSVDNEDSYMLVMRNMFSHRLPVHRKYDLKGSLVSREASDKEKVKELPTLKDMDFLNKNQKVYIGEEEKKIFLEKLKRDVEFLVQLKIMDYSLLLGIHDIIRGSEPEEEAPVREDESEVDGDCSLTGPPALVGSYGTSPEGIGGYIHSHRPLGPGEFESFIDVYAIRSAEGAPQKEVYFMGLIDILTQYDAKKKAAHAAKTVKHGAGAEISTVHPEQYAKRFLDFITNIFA
The assay can be described thus: HiBiT PIP4K2C degradation assay in MOLT-4 cells (endogenous PIP4K2C C-terminally tagged with HiBiT). Format: cell-based. Details: untagged in primary human PBMCs and monocyte-derived dendritic cells. The conditions noted are these: 6 hours of incubation time, rather than 24 hours; MOLT-4, top concentration 10 micromolar; read-out: HiBIT-degradation MOLT4 PIP4k2C DC50 (6 hours, marked *). Put shortly: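 MOLT-4 knock-in line, HiBiT on PIP4K2C C-terminus; 22,500 cells/well; 10-pt 3-fold titration from 10 micromolar, n=2; 24 h or 6 h, 37 C, 5% CO2; Nano-Glo HiBiT lytic luminescence; DC50 via Hill equation.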
(With HiBiT, luminescence reflects the tagged protein that the partner subunit can reach.)
Regarding `Cn1nc(C2CCC(=O)NC2=O)c2ccc(N3CCN([C@H]4CC[C@H](C(=O)N[C@H]5CC[C@H](Nc6ncc(F)c(-c7cccc(-n8ccccc8=O)c7)n6)CC5)CC4)CC3)cc21` (stereo partly drawn) [Compound 388, trans-4-(4-(3-(2,6-dioxopiperidin-3-yl)-1-methyl-1H-indazol-6-yl)piperazin-1-yl)-N-(trans-4-((5-fluoro-4-(3-(2-oxopyridin-1(2H)-yl)phenyl)pyrimidin-2-yl)amino)cyclohexyl)cyclohexane-1-carboxamide], the DC50 is < 500 nM. The figure for `Cn1nc(C2CCC(=O)NC2=O)c2ccc(N3CCN([C@H]4CC[C@H](C(=O)N[C@H]5CC[C@H](Nc6ncc(F)c(-c7cccc(-c8ccc[nH]c8=O)c7)n6)CC5)CC4)CC3)cc21` (stereo partly drawn) [Compound 389, trans-(1r,4R)-4-(4-(3-(2,6-dioxopiperidin-3-yl)-1-methyl-1H-indazol-6-yl)piperazin-1-yl)-N-((1r,4R)-4-((5-fluoro-4-(3-(2-oxo-1,2-dihydropyridin-3-yl)phenyl)pyrimidin-2-yl)amino)cyclohexyl)cyclohexane-1-carboxamide] is < 500 nM. Turning to `O=C1CCC(Nc2ccc(C3CCN(CC4CCN(C(=O)[C@H]5CC[C@H](Nc6ncc(F)c(-c7cccc(-n8ccccc8=O)c7)n6)CC5)CC4)CC3(F)F)c(F)c2)C(=O)N1` (stereo partly drawn) [Compound 390, trans-3-[4-[3,3-difluoro-1-[[1-[4-[[5-fluoro-4-[3-(2-oxo-1-pyridyl)phenyl]pyrimidin-2-yl]amino]cyclohexanecarbonyl]-4-piperidyl]methyl]-4-piperidyl]-3-fluoro-anilino]piperidine-2,6-dione], the DC50 was < 500 nM.

For the molecule `Cn1nc(C2CCC(=O)NC2=O)c2ccc(C3CCN(CC4CCN(C(=O)[C@H]5CC[C@H](Nc6ncc(F)c(-c7cccc(-c8ccc[nH]c8=O)c7)n6)CC5)CC4)CC3)cc21` (stereo partly drawn) [Compound 391, trans-3-(6-(1-((1-(4-((5-fluoro-4-(3-(2-oxo-1,2-dihydropyridin-3-yl)phenyl)pyrimidin-2-yl)amino)cyclohexane-1-carbonyl)piperidin-4-yl)methyl)piperidin-4-yl)-1-methyl-1H-indazol-3-yl)piperidine-2,6-dione], the DC50 was < 500 nM. In the case of `O=C1CCC(Nc2ccc(N3CCN(CC4(O)CCN(C(=O)[C@H]5CC[C@H](Nc6ncc(F)c(-c7cccc(-n8ccccc8=O)c7)n6)CC5)CC4)CC3)c(F)c2)C(=O)N1` (stereo partly drawn) [Compound 392, trans-3-((3-fluoro-4-(4-((1-(4-((5-fluoro-4-(3-(2-oxopyridin-1(2H)-yl)phenyl)pyrimidin-2-yl)amino)cyclohexane-1-carbonyl)-4-hydroxypiperidin-4-yl)methyl)piperazin-1-yl)phenyl)amino)piperidine-2,6-dione] it was < 500 nM. In the case of `O=C1CCC(Nc2ccc(N3CCN(CC4CCN(C(=O)[C@H]5CC[C@H](Nc6ncc(F)c(-c7cccc(N8CCCCC8=O)c7)n6)CC5)CC4)CC3)c(F)c2)C(=O)N1` (stereo partly drawn) [Compound 393, trans-3-[3-fluoro-4-[4-[[1-[4-[[5-fluoro-4-[3-(2-oxo-1-piperidyl)phenyl]pyrimidin-2-yl]amino]cyclohexanecarbonyl]-4-piperidyl]methyl]piperazin-1-yl]anilino]piperidine-2,6-dione] it was < 500 nM; in that of `O=C1CCC(Nc2ccc(C3CCN(CC4CCN(C(=O)[C@H]5CC[C@H](Nc6ncc(F)c(-c7cccc(N8CCCCC8=O)c7)n6)CC5)CC4)CC3)c(F)c2)C(=O)N1` (stereo partly drawn) [Compound 394, trans-3-((3-fluoro-4-(1-((1-(4-((5-fluoro-4-(3-(2-oxopiperidin-1-yl)phenyl)pyrimidin-2-yl)amino)cyclohexane-1-carbonyl)piperidin-4-yl)methyl)piperidin-4-yl)phenyl)amino)piperidine-2,6-dione], < 500 nM. On to `O=C1CCC(Nc2ccc(N3CCC(N4CCC(CC(=O)N[C@H]5CC[C@H](Nc6ncc(F)c(-c7cccc(-n8ccccc8=O)c7)n6)CC5)CC4)CC3)c(F)c2)C(=O)N1` (stereo partly drawn) [Compound 395, trans-2-(1′-(4-((2,6-dioxopiperidin-3-yl)amino)-2-fluorophenyl)-[1,4′-bipiperidin]-4-yl)-N-((1r,4r)-4-((5-fluoro-4-(3-(2-oxopyridin-1(2H)-yl)phenyl)pyrimidin-2-yl)amino)cyclohexyl)acetamide], for which the DC50 is < 500 nM.

In the case of `O=C1CCC(Nc2ccc(C3CCN([C@H]4CC[C@H](C(=O)N[C@H]5CC[C@H](Nc6ncc(F)c(-c7cccc(-c8ccc[nH]c8=O)c7)n6)CC5)CC4)CC3)c(F)c2)C(=O)N1` (stereo partly drawn) [Compound 396, trans-4-(4-(4-((2,6-dioxopiperidin-3-yl)amino)-2-fluorophenyl)piperidin-1-yl)-N-(trans-4-((5-fluoro-4-(3-(2-oxo-1,2-dihydropyridin-3-yl)phenyl)pyrimidin-2-yl)amino)cyclohexyl)cyclohexane-1-carboxamide], the DC50 is < 500 nM. In the case of `O=C1CCC(n2c(=O)oc3cc(N4CCN(CC5CCN(C(=O)[C@H]6CC[C@H](Nc7ncc(F)c(-c8cccc(-n9ccccc9=O)c8)n7)CC6)CC5)CC4)ccc32)C(=O)N1` (stereo partly drawn) [Compound 397, trans-3-(6-(4-((1-(4-((5-fluoro-4-(3-(2-oxopyridin-1(2H)-yl)phenyl)pyrimidin-2-yl)amino)cyclohexane-1-carbonyl)piperidin-4-yl)methyl)piperazin-1-yl)-2-oxobenzo[d]oxazol-3 (2H)-yl)piperidine-2,6-dione] it was < 500 nM. In the case of `O=C1CCC(n2c(=O)oc3cc(N4CCN(CC5CCN(C(=O)[C@H]6CC[C@H](Nc7ncc(F)c(-c8cccc(-c9ccc[nH]c9=O)c8)n7)CC6)CC5)CC4)ccc32)C(=O)N1` (stereo partly drawn) [Compound 398, trans-3-(6-(4-((1-(4-((5-fluoro-4-(3-(2-oxo-1,2-dihydropyridin-3-yl)phenyl)pyrimidin-2-yl)amino)cyclohexane-1-carbonyl)piperidin-4-yl)methyl)piperazin-1-yl)-2-oxobenzo[d]oxazol-3 (2H)-yl)piperidine-2,6-dione] it was < 500 nM; in that of `Cn1nc(C2CCC(=O)NC2=O)c2ccc(N3CCN(CC4CCN(C(=O)[C@H]5CC[C@H](Nc6ncc(F)c(-c7cccc(-n8ccccc8=O)c7)n6)CC5)CC4)CC3)cc21` (stereo partly drawn) [Compound 399, 3-(6-(4-((1-(trans-4-((5-fluoro-4-(3-(2-oxopyridin-1(2H)-yl)phenyl)pyrimidin-2-yl)amino)cyclohexane-1-carbonyl)piperidin-4-yl)methyl)piperazin-1-yl)-1-methyl-1H-indazol-3-yl)piperidine-2,6-dione], < 500 nM; in that of `O=C1CCC(Nc2ccc(N3CCC(CC4CCN(C(=O)[C@H]5CC[C@H](Nc6ncc(F)c(-c7cccc(-n8ccccc8=O)c7)n6)CC5)CC4)CC3)c(F)c2)C(=O)N1` (stereo partly drawn) [Compound 400, trans-3-((3-fluoro-4-(4-((1-(4-((5-fluoro-4-(3-(2-oxopyridin-1(2H)-yl)phenyl)pyrimidin-2-yl)amino)cyclohexane-1-carbonyl)piperidin-4-yl)methyl)piperidin-1-yl)phenyl)amino)piperidine-2,6-dione], < 500 nM. In the case of `O=C1CCC(Nc2ccc(C3CCN([C@H]4CC[C@H](NC(=O)[C@H]5CC[C@H](Nc6ncc(F)c(-c7cccc(-n8ccccc8=O)c7)n6)CC5)CC4)CC3)c(F)c2)C(=O)N1` (stereo partly drawn) [Compound 401, trans-(1r,4R)—N-((1r,4R)-4-(4-(4-((2,6-dioxopiperidin-3-yl)amino)-2-fluorophenyl)piperidin-1-yl)cyclohexyl)-4-((5-fluoro-4-(3-(2-oxopyridin-1(2H)-yl)phenyl)pyrimidin-2-yl)amino)cyclohexane-1-carboxamide] it was < 500 nM; in that of `O=C1CCC(Nc2ccc(C3CCN([C@H]4CC[C@H](NC(=O)[C@H]5CC[C@H](Nc6ncc(F)c(-c7cccc(-c8ccc[nH]c8=O)c7)n6)CC5)CC4)CC3)c(F)c2)C(=O)N1` (stereo partly drawn) [Compound 402, trans-(1r,4R)—N-((1r,4R)-4-(4-(4-((2,6-dioxopiperidin-3-yl)amino)-2-fluorophenyl)piperidin-1-yl)cyclohexyl)-4-((5-fluoro-4-(3-(2-oxo-1,2-dihydropyridin-3-yl)phenyl)pyrimidin-2-yl)amino)cyclohexane-1-carboxamide], < 500 nM; in that of `O=C1CCC(Nc2ccc(N3CCC(OC4CCN(C(=O)[C@H]5CC[C@H](Nc6ncc(F)c(-c7cccc(-c8ccc[nH]c8=O)c7)n6)CC5)CC4)CC3)c(F)c2)C(=O)N1` (stereo partly drawn) [Compound 403, trans-3-((3-fluoro-4-(4-((1-(4-((5-fluoro-4-(3-(2-oxo-1,2-dihydropyridin-3-yl)phenyl)pyrimidin-2-yl)amino)cyclohexane-1-carbonyl)piperidin-4-yl)oxy)piperidin-1-yl)phenyl)amino)piperidine-2,6-dione], < 500 nM. Consider `Cn1nc(C2CCC(=O)NC2=O)c2ccc(N3CCN([C@H]4CC[C@H](NC(=O)[C@H]5CC[C@H](Nc6ncc(F)c(-c7cccc(-c8ccc[nH]c8=O)c7)n6)CC5)CC4)CC3)cc21` (stereo partly drawn) [Compound 404, trans-(1r,4R)—N-((1r,4R)-4-(4-(3-(2,6-dioxopiperidin-3-yl)-1-methyl-1H-indazol-6-yl)piperazin-1-yl)cyclohexyl)-4-((5-fluoro-4-(3-(2-oxo-1,2-dihydropyridin-3-yl)phenyl)pyrimidin-2-yl)amino)cyclohexane-1-carboxamide], for which the DC50 was > 5000 nM.
